In patent US20250122171A1, “Substituted Amine Compounds, Compositions and Methods of Use” (Deep Apple Therapeutics, Inc., priority 2023, published 2025) one finds IC50 data, which are given here for 23 molecules.

Common to all, as to format: cell-based
One test concerns the target T1, human MRGPRX2 (Homo sapiens, UniProt Q96LB1).
T1 construct: expressed in transfected cells; host or cells: FlpIn TRex HEK293 (TRex-MRGPRX2-HEK), doxycycline-induced
T1 sequence (Q96LB1 1-330): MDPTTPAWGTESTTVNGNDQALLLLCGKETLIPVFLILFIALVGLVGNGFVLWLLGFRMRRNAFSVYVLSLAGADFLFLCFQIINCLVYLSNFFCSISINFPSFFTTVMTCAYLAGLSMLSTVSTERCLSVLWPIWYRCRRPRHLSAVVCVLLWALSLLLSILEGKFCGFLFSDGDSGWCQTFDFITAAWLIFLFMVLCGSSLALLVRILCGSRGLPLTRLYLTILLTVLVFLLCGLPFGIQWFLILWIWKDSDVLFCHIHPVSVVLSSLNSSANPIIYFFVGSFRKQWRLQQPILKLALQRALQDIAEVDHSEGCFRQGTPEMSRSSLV
Nature of the test: MRGPRX2 Activity Assay (IP-1 HTRF, antagonist mode). The conditions noted are these: FlpIn TRex-MRGPRX2-HEK293 cells; versus 1 μM Cortistatin-14 agonist; 30 minutes preincubation. The method in brief: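 Doxycycline-induced (100 ng/mL, 18-24 h) TRex HEK293 cells stably expressing human MRGPRX2, in HBSS/20 mM HEPES/0.1% BSA/10 mM LiCl. Compounds (top final 30 uM, 1% DMSO) preincubated 30 min, then agonist stimulation 1 h at 37° C without wash. IP-1 accumulation read by HTRF; IC50 from 4-parameter fit.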

For test [1], the system named is LAD-2 cells. Nature of the test: LAD2 Degranulation Assay (Protocol 2), β-hexosaminidase release. As to conditions: Homo sapiens, 0.5 μM Cortistatin-14, 2 h preincubation, cells without SCF 18-24 hours, top concentration 3 μM. The procedure:
(§1) LAD-2 cells were maintained at 37° C. with 5% CO2 and grown in complete StemPro-34 media supplemented with 1% L-Glutamate, 1% penicillin/streptomycin, and 250 ng/mL human SCF.
18-24 hours prior to experiment, LAD-2 cells were collected and transferred to growth media without SCF. On the day of experiment, cells were collected by centrifugation and seeded in 384-well assay plates, at 4,000 cells per well in 17 μl freshly made assay buffer (10 mM HEPES, 137 mM NaCl, 2.7 mM KCl, 1.8 mM CaCl2), 1.0 mM MgCl2, 5.6 mM glucose, 0.4 mM NaH2PO4, 0.04% BSA, pH=7.40). For dose-response assays, compounds solubilized in 100% DMSO at 30 mM were serially diluted (1:3) first in 100% DMSO, and 2 intermediate dilutions with assay buffer were used to establish a final top concentration of 3 μM (in assay plate). For single point assays, dilution of DMSO stocks to 250 nM (in assay plate) was performed in the same manner as described for dose-response assays. Final DMSO concentration was kept constant at 0.1% across plates for all assays. Cortistatin-14 at 30 mM stock concentration was solubilized in HBSS+0.1% BSA, stored at −20° C. in 5 μl aliquots and discarded after one freeze-thaw cycle. Final concentration of agonist used in both dose-response and single point assays was 0.5 μM, prepared in assay buffer.
(§2) Antagonist equilibrium was established with 2 h preincubation, followed by no wash, direct addition, and stimulation of agonist for 30 minutes at 37° C. For detection of β-hexosaminidase activity, assay plates were centrifuged and 5 μl of cell-free supernatant from each assay well was transferred to a black-walled black-bottomed 384-well plate. Substrate solution (1 mM 4-Methylumbelliferyl N-acetyl-β-D-glucosaminide in citrate buffer, pH=4.5, 15 Ml) was added to each well and plates were incubated for 1 hour at 37° C. The plate was read on an EnVision XCite plate reader for umbelliferone fluorescence intensity (λex=355 nm, λem=460 nm). Background-subtracted data was analyzed using either GraphPad Prism or a custom Python script to calculate IC50 using either Log[Antagonist] vs. response (4 parameter) nonlinear regression (dose-response assays) or % control β-hexosaminidase activity (single point assays).

The test system of test [2] is LAD-2 cells. Nature of the test: LAD2 Degranulation Assay (Protocol 1), β-hexosaminidase release. As to conditions: Homo sapiens, 1 μM Cortistatin-14, 30 minute preincubation, top concentration 3 μM. As for the experimental part: as §1
On the day of experiment, cells were collected by centrifugation and seeded in 384-well assay plates, at 4,000 cells per well in 10 μl freshly made assay buffer (10 mM HEPES, 130 mM NaCl, 5 mM KCl, 1.8 mM CaCl2), 1.0 mM MgCl2, 5.6 mM glucose, 0.1% BSA, pH=7.40). For dose-response assays, compounds solubilized in 100% DMSO at 30 mM were serially diluted (1:3) first in 100% DMSO, and 2 intermediate dilutions with assay buffer were used to establish a final top concentration of 3 μM (in assay plate). Final DMSO concentration was kept constant at 0.1% across plates for all assays. Cortistatin-14 at 30 mM stock concentration was solubilized in HBSS+0.1% BSA, stored at −20° C. in 5 μl aliquots and discarded after one freeze-thaw cycle. Final concentration of agonist used in both dose-response and single point assays was 1 μM, prepared in assay buffer.
as §2, with “30 minute” for “2 h”, “μl)” for “Ml)”, “(dose-response” for “(dose-response assays) or % control β-hexosaminidase activity (single point”

In the case of `C[C@@H](C(=O)Nc1cn(Cc2cc(F)cc(F)c2)c(C(F)F)n1)N1CCC(F)(F)[C@@H](c2c[nH]c(=O)c(CO)c2)C1` (single isomer, unassigned) [Compound 490], the figures for the IC50 at human MRGPRX2 and with LAD-2 cells [1] were 3.5 nM and 34 nM, respectively.
On to `C[C@@H](C(=O)Nc1noc(Cc2cc(F)cc(F)c2)n1)N1CCC(F)(F)[C@@H](c2cc[n+]([O-])cc2)C1` (single isomer, unassigned) [Compound 56], for which the IC50 at human MRGPRX2 was found to be 76 nM; in the test with LAD-2 cells [2] it was 976 nM.
The corresponding values for `C[C@H](C(=O)Nc1coc(Cc2cc(F)cc(F)c2)n1)N1CCC(F)(F)[C@@H](c2cc[n+]([O-])cc2)C1` (single isomer, unassigned) [Compound 28] are 2.1 nM and 19 nM.
The like results for `C[C@H](C(=O)Nc1cn(Cc2cc(F)cc(F)c2)cn1)N1CCC(F)(F)[C@@H](c2ccc(=O)n(C)c2)C1` (single isomer, unassigned) [Compound 68] were, in that order, 23 nM and 30 nM.
On to `C[C@@H](C(=O)Nc1cn(Cc2cc(F)cc(F)c2)c(Cl)n1)N1CCC(F)(F)[C@@H](c2cc[n+]([O-])cc2)C1` (single isomer, unassigned) [Compound 80], for which the IC50 is 755 nM on human MRGPRX2 and above 3000 nM in the test with LAD-2 cells [2].
The like results for `Cc1nc(NC(=O)[C@H](C)N2CCC(F)(F)[C@@H](c3cc[n+]([O-])cc3)C2)cn1Cc1ccc(F)cc1F` (single isomer, unassigned) [Compound 9] were, in that order, 17 nM and 28 nM.
The like results for `C[C@@H](C(=O)Nc1cn(Cc2cc(F)cc(F)c2F)cn1)N1CCC(F)(F)[C@@H](c2cc[n+]([O-])cc2)C1` [Compound 39, 4-((S)-4,4-difluoro-1-((S)-1-oxo-1-((1-(2,3,5-trifluorobenzyl)-1H-imidazol-4-yl)amino)propan-2-yl)piperidin-3-yl)pyridine 1-oxide] were, in that order, 4.1 nM and 3.3 nM.
For `C[C@@H](C(=O)Nc1cn(Cc2cc(F)cc(C#N)c2)cn1)N1CCC(F)(F)[C@@H](c2cc[n+]([O-])cc2)C1` [Compound 53, 4-((S)-1-((S)-1-((1-(3-cyano-5-fluorobenzyl)-1H-imidazol-4-yl)amino)-1-oxopropan-2-yl)-4,4-difluoropiperidin-3-yl)pyridine 1-oxide], the half-inhibitory concentration (IC50) on human MRGPRX2 was 783 nM; in the test with LAD-2 cells [2] it was 1020 nM.
The corresponding values for `C[C@@H](C(=O)Nc1cn(Cc2ccc(F)cc2F)c(C(F)(F)F)n1)N1CCC(F)(F)[C@@H](c2cc[n+]([O-])cc2)C1` (single isomer, unassigned) [Compound 7] are 45 nM and above 3000 nM.
Consider `C[C@H](C(=O)Nc1cn2c(n1)CC[C@@H]2c1cc(F)cc(F)c1)N1CCCCC1` (single isomer, unassigned) [Compound 498], for which the values for the half-inhibitory concentration (IC50) on human MRGPRX2 and with LAD-2 cells [1] were 686 nM and 79 nM, respectively.
The corresponding values for `C[C@H](C(=O)Nc1cn2c(n1)CC[C@H]2c1cc(F)cc(F)c1)N1CCCCC1` (single isomer, unassigned) [Compound 499] are above 30000 nM and above 3000 nM.
On to `O=C(Nc1cn(Cc2cc(F)cc(F)c2)cn1)[C@@H]1C(F)(F)C12CCC2` [Compound 29, (R)—N-(1-(3,5-difluorobenzyl)-1H-imidazol-4-yl)-2,2-difluorospiro[2.3]hexane-1-carboxamide], for which the IC50 at human MRGPRX2 was determined as 220 nM; with LAD-2 cells [2], 212 nM.
The like results for `C[C@H](C(=O)Nc1cn(Cc2cc(F)cc(F)c2)c(C(F)(F)F)n1)N1CCC(F)(F)[C@@H](c2cc[n+]([O-])cc2)C1` (single isomer, unassigned) [Compound 26] were, in that order, 13 nM and 40 nM.
For the molecule `C[C@H](C(=O)Nc1nc2ccccc2s1)N1CCC(F)(F)[C@@H](c2cc[n+]([O-])cc2)C1` (single isomer, unassigned) [Compound 85], the IC50 on human MRGPRX2 is 28 nM; with LAD-2 cells [2] it was 100 nM.
In the case of `C[C@@H](C(=O)Nc1cc2n(n1)CC[C@H]2c1cc(F)cc(F)c1)N1CCC(F)(F)[C@@H](c2ccc(=O)[nH]c2)C1` (single isomer, unassigned) [Compound 531], the 50% inhibitory concentration (IC50) at human MRGPRX2 amounted to 592 nM; with LAD-2 cells [1], 614 nM.
With `C[C@H](C(=O)Nc1cn(Cc2cc(F)cc(F)c2)cn1)N1CCC(F)(F)[C@@H](c2ccc(=O)[nH]c2)C1` (single isomer, unassigned) [Compound 55], the IC50 at human MRGPRX2 came out at 4 nM; in the test on LAD-2 cells [2], 22 nM.
The corresponding values for `Cc1nc(NC(=O)[C@H](C)N2CCC(F)(F)CC2)cn1Cc1cc(F)cc(F)c1` (single isomer, unassigned) [Compound 21] are 3.3 nM and 0.7 nM.
Take `C[C@@H](C(=O)Nc1cn2c(n1)CC[C@@H]2c1cc(F)cc(F)c1)N1CCC(F)(F)[C@@H](c2ccc(=O)[nH]c2)C1` (single isomer, unassigned) [Compound 493]: the 50% inhibitory concentration (IC50) on human MRGPRX2 was above 30000 nM; with LAD-2 cells [1], above 3000 nM.
Turning to `Cc1nc(NC(=O)[C@H](C)N2CCC(F)(F)[C@@H](c3cc[n+]([O-])cc3)C2)cn1Cc1cc(F)cc(F)c1` (single isomer, unassigned) [Compound 19], the figures for the IC50 on human MRGPRX2 and with LAD-2 cells [2] were 2.1 nM and 1.6 nM, respectively.
The like results for `C[C@H](C(=O)Nc1cn(Cc2cc(F)cc(F)c2)c(C(F)(F)F)n1)N1CCC(F)(F)[C@H](c2ccc(=O)[nH]c2)C1` (single isomer, unassigned) [Compound 77] were, in that order, 18 nM and 51 nM.
The like results for `C[C@H](C(=O)Nc1cn(Cc2cc(F)cc(F)c2)cn1)N1CCC(F)(F)[C@@H](c2c[nH]c(=O)c(CO)c2)C1` (single isomer, unassigned) [Compound 72] were, in that order, 12 nM and 20 nM.
As for `C[C@@H](C(=O)Nc1cn2c(n1)CC[C@H]2c1cc(F)cc(F)c1)N1CCCCC1` (single isomer, unassigned) [Compound 500], the half-maximal inhibitory concentration (IC50) at human MRGPRX2 was above 30000 nM; in the test with LAD-2 cells [1] it was above 3000 nM.
Consider `C[C@@H](C(=O)Nc1cn(Cc2cc(F)ccc2Cl)cn1)N1CCC(F)(F)[C@@H](c2cc[n+]([O-])cc2)C1` [Compound 35, 4-((S)-1-((S)-1-((1-(2-chloro-5-fluorobenzyl)-1H-imidazol-4-yl)amino)-1-oxopropan-2-yl)-4,4-difluoropiperidin-3-yl)pyridine 1-oxide], for which the IC50 on human MRGPRX2 was 7.9 nM; in the test on LAD-2 cells [2], 57 nM.
